According to PubChem BioAssay (NCI):
Several values for one entry are separate records, joined by “and”; a condition that tells them apart may be missing. Identical values can stand only once.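 All cell lines were grown in 96-well plates and treated with compound for 48 hours. Here, GI50 denotes the concentration required for 50% inhibition of growth. The concentration for full growth arrest is given as TGI.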

What was measured:
Experiment in all cases: NCI-60 cell line screen, 48 h
DLD-1 colon = system: DLD-1 colon
DMS 114 small cell lung = system: DMS 114 small cell lung
LXFL 529 NSCLC = system: LXFL 529 NSCLC
M19-MEL melanoma = system: M19-MEL melanoma
SNB-78 CNS = system: SNB-78 CNS
XF 498 CNS = system: XF 498 CNS
BT-549 breast = system: BT-549 breast
HOP-18 NSCLC = system: HOP-18 NSCLC
MDA-N = system: MDA-N
RXF-631 renal = system: RXF-631 renal

| SMILES | TGI (DLD-1 colon) | TGI (LXFL 529 NSCLC) | TGI (M19-MEL melanoma) | TGI (SNB-78 CNS) | TGI (XF 498 CNS) | GI50 (BT-549 breast) | TGI (BT-549 breast) | other results |
| --- | --- | --- | --- | --- | --- | --- | --- | --- |
| C=C(C)C1CC=C(C)C(O)([C@@]2(O)C[C@H](C(=C)C)CC=C2C)C1 (stereo partly specified) | > 100 µM | > 100 µM | 38.1 µM | > 100 µM | 29.7 µM |  |  | TGI (DMS 114 small cell lung): > 100 µM |
| Cc1nccc2c3ccc(OCc4cn(-c5ccc(Br)cc5)nn4)cc3n(CCCc3ccccc3)c12 |  |  |  |  |  | 2.47 µM | 7.48 µM |  |
| CCC1=CCC(P(=O)(c2ccccc2)c2ccccc2)CC1C (stereo unspecified) |  | > 100 µM | > 100 µM | > 100 µM | > 100 µM |  |  | TGI (DMS 114 small cell lung): > 100 µM; TGI (HOP-18 NSCLC): > 100 µM |
| N#Cc1ccc(C(=O)c2cnn(-c3ccc(F)cc3)c2N)cc1 |  |  |  |  |  | > 25 µM | > 25 µM |  |
| CC[C@@]1(O)C(=O)OCc2c1cc1n(c2=O)Cc2cc3cccc(N)c3nc2-1 | > 100 µM | > 100 µM | > 100 µM | > 100 µM | 82.1 µM |  |  | GI50 (DLD-1 colon): > 100 µM; GI50 (LXFL 529 NSCLC): > 100 µM; GI50 (M19-MEL melanoma): 13.1 µM; GI50 (SNB-78 CNS): > 100 µM; GI50 (XF 498 CNS): 27.3 µM |
| O=C1NC(c2cccc3ccccc23)Nc2ccccc21 (stereo unspecified) |  |  |  |  |  |  | > 100 µM | TGI (MDA-N): 0.00629 µM and 0.0586 µM |
| CN(CO)c1nc(N(C)CO)nc(N(C)CO)n1 | 97.2 µM |  | 17.2 µM | 25.3 µM | 12.8 µM |  | 43.1 µM and 36.9 µM | TGI (HOP-18 NSCLC): > 55.6 µM; GI50 (MDA-N): 24.8 µM; TGI (MDA-N): 39.3 µM and 63.4 µM |
| Fc1ccc(-c2c(-c3ccncc3)[nH]c3cccnc23)cc1 |  |  |  |  |  | > 25 µM | > 25 µM |  |
| CC1=C(C(=O)Nc2ccccc2C)C(c2ccccc2O)C(C(=O)Nc2ccccc2C)=C(C)N1 | 36.1 µM | 51 µM | 52 µM | 74.7 µM | 61.5 µM |  |  | TGI (DMS 114 small cell lung): 50.4 µM; TGI (HOP-18 NSCLC): 55.6 µM |
| Oc1ccccc1/C=N\Nc1ccccc1 |  |  |  |  |  | 3.19 µM | 25.4 µM |  |
| C/C(CC(=O)Nc1cccc([N+](=O)[O-])c1)=N/NC(N)=S | > 100 µM | > 100 µM | > 100 µM |  |  |  |  | TGI (DMS 114 small cell lung): > 100 µM |
| CCc1nc(N)nc(N)c1-c1ccc(N(C)Cc2ccccc2)c([N+](=O)[O-])c1 |  |  |  |  |  |  | 18.4 µM | TGI (MDA-N): 19.1 µM |
| COC(=O)/C=C(C)/C=C/c1c(C)c(C(C)=O)c(C)n1C | > 100 µM | > 100 µM | > 100 µM | > 100 µM | > 100 µM |  |  | TGI (HOP-18 NSCLC): > 100 µM; TGI (RXF-631 renal): > 100 µM |
| O=C1/C=C/[C@@H](O)[C@@H]2C[C@@H](O)C[C@H]2/C=C/CCC[C@H](CCc2ccc(NC(=S)Nc3ccc4c(c3)C(=O)OC43c4ccc(O)cc4Oc4cc(O)ccc43)cc2)O1 |  |  |  |  |  | 0.451 µM | 73.7 µM |  |
| Cc1cc(C(=O)CC(Cl)=C(Cl)Cl)c(Cl)cc1Cl |  |  |  |  |  | 20.2 µM | 44.4 µM |  |
| CCCn1cc(/C=N\N=C2\C(=O)Nc3ccc(C)cc32)c2ccccc21 |  |  |  |  |  | 1.79 µM | 6.33 µM |  |
